Laboratory results as given in patent US8080644B2, “Oligonucleotide analogues” (Exiqon A/S, priority 1997, dated 2011).
Strand notation (5' to 3'): a small letter for the sugar, then the base; units joined by * are phosphorothioate-linked, units joined directly phosphodiester-linked; [ ] holds rarer units or linkages, { } end groups; capitals alone tell only the bases. V = LNA monomer of structure V, bold; X = bicyclic LNA-type nucleotide of structure X in the publication's (LNA marked in bold); Y = bicyclic LNA-type thymidine monomer of structure Y; l = locked nucleic acid (LNA); d = 2'-deoxy (DNA)

Assays:
5′-(AAAAAAAAAAAAAA)-3′ = experiment: Tm of duplex (spectrophotometric melting curves); format: binding; details: vs RNA 5′-(AAAAAAAAAAAAAA)-3′; 10 mM Na2HPO4 pH 7.0, 100 mM NaCl, 0.1 mM EDTA
Protocol: (§1) Thermostability of oligonucleotides containing monomers of formula V, X, Y and Z^T, Z^U, Z^G, Z^C, Z^A, Z^MeC. The thermostability of the LNA modified oligonucleotides were determined spectrophotometrically using a spectrophotometer equipped with a thermoregulated Peltier element. Hybridisation mixtures of 1 ml were prepared containing either of 3 different buffers (10 mM Na2HPO4, pH 7.0, 100 mM NaCl, 0.1 mM EDTA; 10 mM Na2HPO4 pH 7.0, 0.1 mM EDTA; 3M tetramethylammoniumchlorid (TMAC), 10 mM Na2HPO4, pH 7.0, 0.1 mM EDTA) and equimolar (1 μM or 1.5 μM) amounts of the different LNA modified oligonucleotides and their complementary or mismatched DNA or RNA oligonucleotides. Identical hybridisation mixtures using the unmodified oligonucleotides were prepared as references. The Tm's were obtained as the first derivative of the melting curves. FIG. 2 illustrates the monomeric LNAs used. The nomenclature V, X, Y and Z^T, Z^U, Z^G, Z^C, Z^A, Z^MeC refer to structures V, X, Y and Z of FIG. 2. In the tables, the nucleobases of the LNA monomers are indicated. Furthermore, for the thio and amino variants of the LNA structure Z of the last two tables, the nomenclature used is, e.g., Z^TS and Z^TNH, respectively.

5′-d(AAAAAAAAAAAAAA)-3′ = experiment: Tm of duplex (spectrophotometric melting curves); format: binding; details: vs 5′-d(AAAAAAAAAAAAAA)-3′; 10 mM Na2HPO4 pH 7.0, 100 mM NaCl, 0.1 mM EDTA
Protocol: as §1

[1] = test system: Nras amplicons (Nras 910, Nras 600, Nras 200); experiment: Capture of Nras PCR amplicons by immobilised probes; format: binding, human; details: native amplicons; 1 pmol probe per well
Protocol: Three DIG labelled amplicons from Nras sequence (ref.: Nucleic Acid Research, 1985, Vol. 13, No. 14, p 52-55) were generated by PCR amplification as follows:
PCR reaction mixture for Nras amplicons: 2.3 μl human placental genomic DNA (440 ng/μl), 50 μl 10×PCR buffer (without MgCl2 Perkin Elmer), 30 μl 25 mM MgCl2, 50 μl dNTP-mix (2 mM dATP, dCTP, dGTP and 1.8 mM dTTP), 10 μl 1 mM Dig-11-dUTP, 10 μl 25 μM forward primer, 10 μl 25 μM reverse primer, 5 μl 5 U/μl AmpliTaq Gold (Perkin Elmer) and water ad 500 μl. PCR reaction: The above mixture was made for all the Nras PCR products. The only difference being reverse primer 910 bp, 600 bp or 200 bp added once at a time. The PCR mixtures were aliquoted into ten PCR tubes each and cycled in a Perkin Elmer 9600 at the following conditions: 95° C. 3 min; 55° C. 2 min, 72° C. 3 min, 95° C. 1 min (30 cycles); 55° C. 2 min, 72° C. 10 min and 4° C. soak. 10 μl from each PCR reaction was analysed on a standard agarose gel and the expected fragments of approximately 910 bp, 600 bp and 200 bp were observed. Assay conditions: Wells of a streptavidin coated micro-titer plate (Boehringer Mannheim; binding capacity of 20 pmol biotin per well) were incubated for 1 hour in 5×SSCT (0.75 M NaCl, 75 mM citrate, pH 7.0, 0.1% Tween 20) at 37° C. with either 1 pmol of DNA Nras Cap A (biotin-5′-TTCCACAGCACAA-3′) (SEQ ID NO:37), LNA/DNA Nras Cap A (biotin-5′-TTCCACAGCACAA-3′) (SEQ ID NO:38), LNA Nras Cap A (biotin-5′-TTCCACAGCACAA-3′) (SEQ ID NO:39), DNA Nras Cap B (biotin-5′-AGAGCCGATAACA-3′) (SEQ ID NO:40), LNA/DNA Nras Cap B (biotin-5′-AGAGCCGATAACA-3′) (SEQ ID NO:41) or LNA Nras Cap B (biotin-5′-AGAGCCGATAACA-3′) (SEQ ID NO:42); LNA nucleosides in bold. The Nras Cap A capture probes capture amplicons Nras 910, Nras 600 and Nras 200. Nras Cap B capture probes capture specific amplicons Nras 910 and Nras 600. After incubation with the different capture probes, the wells were washed in 5×SSCT and 5 μl native or denatured (95° C. 5 min and 10 min on ice) DIG-labelled amplicons (Nras 910, Nras 600 or Nras 200) in 95 μl 1×SSCT (0.15 M NaCl, 15 mM citrate, pH 7.0, 0.1% Tween 20) were added per well and incubated for 1 hour at 37° C. The wells were washed three times in phosphate buffered saline (1×PBST, 0.15 M Nat, pH 7.2, 0.05% Tween 20) and incubated 30 min at 37° C. with 200 μl peroxidase labelled anti-DIG antibodies (Boehringer Mannheim, diluted 1:1000 in 1×PBST). Finally the wells were washed three times in 1×PBST and assayed for peroxidase activity by adding 100 μl of substrate solution (0.1 M citrate-phosphate buffer pH 5.0, 0.66 mg/ml ortho-phenylenediamine dihydrochloride, 0.012% H2O2) the reaction was stopped after 9 min by adding 100 μl 0.5 M H2SO4 and diluted 4 times in H2SO4 before the absorbance at 492 nm was read in a micro-titer plate reader. […] We conclude that LNA modified oligos containing mixed LNA nucleosides (A, T, G or C LNA nucleosides) function efficiently in sequence specific capture of PCR amplicons when immobilised on a solid surface. We further conclude that LNA offers a means to construct capture probes that will function efficiently in amplicon capture without prior denaturation i.e. capture by strand displacement. This ability facilitates a significant simplification of current amplicon detection formats based on DNA.

Substance | Tm (° C.) Na2HPO4/NaCl/EDTA (5′-(AAAAAAAAAAAAAA)-3′) | Tm (° C.) Na2HPO4/NaCl/EDTA (5′-d(AAAAAAAAAAAAAA)-3′) | capture of specific amplicons without prior denaturation [1]
5′-d(TTTTTTTTTTTTTT)-3′ (SEQ ID NO: 80): unmodified poly-T oligonucleotide (Table 1, 42 and 43) (unmodified DNA) [reference compound] | 32 °C | 36 °C | –
5′-d(TTTTTTTTTTTTTT)-3′ (SEQ ID NO: 83): partly modified poly-T oligonucleotide with Z^T (44, 45) (DNA dTdTdTdTdTdTlTdTdTdTdTdTdTdT) | 32 °C | 36 °C | –
5′-d(TTTTTTTTTTTTTT)-3′ (SEQ ID NO: 86): partly modified poly-T oligonucleotide with Z^T (46, 47) (DNA dTdTdTdTdTdTlTlTdTdTdTdTdTdT) | 40 °C | 34 °C | –
5′-d(TTTTTTTTTTTTTT)-3′ (SEQ ID NO: 89): partly modified poly-T oligonucleotide with Z^T (48, 49) (DNA dTdTdTdTdTlTlTlTlTdTdTdTdTdT) | 52 °C | 42 °C | –
5′-d(TTTTTTTTTTTTTT)-3′ (SEQ ID NO: 92): partly modified poly-T oligonucleotide with Z^T (50, 51) (DNA dTdTdTdTlTdTlTdTlTdTlTdTdTdT) | 53 °C | 47 °C | –
5′-d(TTTTTTTTTTTTTT)-3′ (SEQ ID NO: 98): partly modified poly-T with monomer V (sugars from the 5' end d7 V1 d6, backbone not given here) | 27 °C | 32 °C | –
5′-d(TTTTTTTTTTTTTT)-3′ (SEQ ID NO: 101): partly modified poly-T with monomer V (sugars from the 5' end d6 V2 d6, backbone not given here) | 28 °C | 31 °C | –
5′-d(TTTTTTTTTTTTTT)-3′ (SEQ ID NO: 104): partly modified poly-T with monomer V (sugars from the 5' end d6 V1 d1 V1 d5, backbone not given here) | 23 °C | 30 °C | –
5′-d(TTTTTTTTTTTTTT)-3′ (SEQ ID NO: 107): partly modified poly-T with monomer V (sugars from the 5' end d5 V4 d5, backbone not given here) | 31 °C | 23 °C | –
5′-d(TTTTTTTTTTTTTT)-3′ (SEQ ID NO: 110): partly modified poly-T with monomer V (sugars from the 5' end ddddVdVdVdVddd, backbone not given here) | 16 °C | 23 °C | –
5′-d(TTTTTTTTTTTTTT)-3′ (SEQ ID NO: 117): poly-T containing X^T (sugars from the 5' end d7 X1 d6, backbone not given here) | 23 °C | 23 °C | –
5′-d(TTTTTTTTTTTTTT)-3′ (SEQ ID NO: 120): poly-T containing X^T (sugars from the 5' end d6 X2 d6, backbone not given here) | 23 °C | 19 °C | –
5′-d(TTTTTTTTTTTTTT)-3′ (SEQ ID NO: 123): poly-T containing X^T (sugars from the 5' end d6 X1 d1 X1 d5, backbone not given here) | 15 °C | 9 °C | –
5′-d(TTTTTTTTTTTTTT)-3′ (SEQ ID NO: 126): poly-T containing X^T (sugars from the 5' end d5 X4 d5, backbone not given here) | 14 °C | 5 °C | –
5′-d(TTTTTTTTTTTTTT)-3′ (SEQ ID NO: 129): partly modified poly-T with monomer Y (sugars from the 5' end d7 Y1 d6, backbone not given here) | 37 °C | 36 °C | –
5′-d(TTTTTTTTTTTTTT)-3′ (SEQ ID NO: 132): partly modified poly-T with monomer Y (sugars from the 5' end d6 Y2 d6, backbone not given here) | 37 °C | 35 °C | –
5′-d(TTTTTTTTTTTTTT)-3′ (SEQ ID NO: 135): partly modified poly-T with monomer Y (sugars from the 5' end d6 Y1 d1 Y1 d5, backbone not given here) | 36 °C | 35 °C | –
5′-d(TTTTTTTTTTTTTT)-3′ (SEQ ID NO: 138): partly modified poly-T with monomer Y (sugars from the 5' end d5 Y4 d5, backbone not given here) | 33 °C | 32 °C | –
5′-d(TTTTTTTTTTTTTT)-3′ (SEQ ID NO: 141): partly modified poly-T with monomer Y (sugars from the 5' end ddddYdYdYdYddd, backbone not given here) | 36 °C | 36 °C | –
5′-d(TTTTTTTTTTTTTT)-3′ (SEQ ID NO: 144): fully modified poly-T oligonucleotide of structure Y (sugars from the 5' end Y13 d1, backbone not given here) | 58 °C | 58 °C | –
DNA Nras Cap A: biotin-5′-TTCCACAGCACAA-3′ (SEQ ID NO:37), DNA capture probe (DNA, 5' {Biotin}, backbone not given here) [reference compound] | – | – | do not capture the specific amplicons at all
DNA Nras Cap B: biotin-5′-AGAGCCGATAACA-3′ (SEQ ID NO:40), DNA capture probe (DNA, 5' {Biotin}, backbone not given here) [reference compound] | – | – | do not capture the specific amplicons at all
